Data published in patent US20250353873A1, “COMPOUNDS AND METHODS FOR MODULATING APOE EXPRESSION” (Ionis Pharmaceuticals, Inc., priority 2024, published 2025).
Strand notation (5' to 3'): a small letter for the sugar, then the base; units joined by * are phosphorothioate-linked, units joined directly phosphodiester-linked; [ ] holds rarer units or linkages, { } end groups; capitals alone tell only the bases. e = 2'-O-(2-methoxyethyl) (MOE); [5mC] = 5-methylcytosine; d = 2'-deoxy (DNA)

Test system: human APOE RNA
Assay: Activity in APOE 1549 knock-in mice, single ICV bolus, 2 weeks (Example 7)
Type: in vivo
Settings: single ICV bolus of 300 μg, two weeks post treatment, Table 16
Protocol: Modified oligonucleotides described above were tested in APOE knock-in mice.
APOE knock-in mice (model 41549) were obtained from Taconic Biosciences. APOE knock-in mice were divided into groups of 2 mice each. Each mouse received a single intracerebroventricular (ICV) bolus of 300 μg of modified oligonucleotide. A group of 4 mice received a single ICV bolus with PBS as a negative control.
Two weeks post treatment, mice were sacrificed and RNA was extracted from cortical brain tissue and spinal cord for quantitative real-time RT-PCR analysis of RNA expression of APOE using primer probe set RTS3073 (described herein above). APOE RNA levels were normalized to mouse Ppia. Mouse Ppia was amplified using primer probe set m_cyclo24 (forward sequence TCGCCGCTTGCTGCA, designated herein as SEQ ID NO: 16; reverse sequence ATCGGCCGTGATGTCGA, designated herein as SEQ ID NO: 17; probe sequence […], designated herein as SEQ ID NO: 18). Results are presented as percent human APOE RNA relative to the amount of human APOE RNA in PBS treated animals, (% control). Each experiment is identified in separate tables below.

Substance	APOE RNA (% control) Cortex	APOE RNA (% control) Spinal Cord
1601942: 6-10-4 MOE gapmer CCGTGTTCCATTTATGAGCT, linkages sooooossssssssssoss (antisense e[5mC]*e[5mC]eGeTeGeTdT*d[5mC]*d[5mC]*dA*dT*dT*dT*dA*dT*dG*eAeG*e[5mC]*eT) [compound 1601942]	84 % control	91 % control
1601943: 6-10-4 MOE gapmer GTCCTCATTTTAAAGTTCTC, linkages sooooossssssssssoss (antisense eG*eTe[5mC]e[5mC]eTe[5mC]dA*dT*dT*dT*dT*dA*dA*dA*dG*dT*eTe[5mC]*eT*e[5mC]) [compound 1601943]	115 % control	113 % control
1601959: 6-10-4 MOE gapmer CCGTGTCGCTGCCCCTGGCT, linkages sooooossssssssssoss (antisense e[5mC]*e[5mC]eGeTeGeTd[5mC]*dG*d[5mC]*dT*dG*d[5mC]*d[5mC]*d[5mC]*d[5mC]*dT*eGeG*e[5mC]*eT) [compound 1601959]	107 % control	85 % control
1601958: 6-10-4 MOE gapmer CTTCACATTCTAAGCTCCAA, linkages sooooossssssssssoss (antisense e[5mC]*eTeTe[5mC]eAe[5mC]dA*dT*dT*d[5mC]*dT*dA*dA*dG*d[5mC]*dT*e[5mC]e[5mC]*eA*eA) [compound 1601958]	109 % control	102 % control
